PubChem BioAssay (NCI)
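Values below derive from 48-hour exposures of cells grown in 96-well plates, with endpoints linearly interpolated between the two concentrations bracketing the appropriate inhibition level. At the GI50, growth is halved. The concentration for full growth arrest is given as TGI.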

What was measured:
Assay in all cases: growth of human tumour cells (NCI), 48 h
SK-MEL-5 melanoma = system: SK-MEL-5 melanoma
K-562 leukemia = system: K-562 leukemia
UACC-62 melanoma = system: UACC-62 melanoma
SF-268 CNS = system: SF-268 CNS
MDA-MB-435 = system: MDA-MB-435
OVCAR-3 ovarian = system: OVCAR-3 ovarian
NCI-H522 lung = system: NCI-H522 lung
EKVX NSCLC = system: EKVX NSCLC
786-0 renal = system: 786-0 renal
HCT-15 colon = system: HCT-15 colon
U251 CNS = system: U251 CNS
CCRF-CEM leukemia = system: CCRF-CEM leukemia
SNB-19 CNS = system: SNB-19 CNS
BT-549 breast = system: BT-549 breast
ACHN renal = system: ACHN renal
CAKI-1 renal = system: CAKI-1 renal
UACC-257 melanoma = system: UACC-257 melanoma
NCI-H23 lung = system: NCI-H23 lung
NCI/ADR-RES ovarian = system: NCI/ADR-RES ovarian
HT29 colon = system: HT29 colon
UO-31 renal = system: UO-31 renal
MALME-3M melanoma = system: MALME-3M melanoma
SF-295 CNS = system: SF-295 CNS
HCC-2998 colon = system: HCC-2998 colon
HOP-62 NSCLC = system: HOP-62 NSCLC
MDA-MB-468 breast = system: MDA-MB-468 breast
RPMI-8226 leukemia = system: RPMI-8226 leukemia
SW-620 colon = system: SW-620 colon
OVCAR-8 ovarian = system: OVCAR-8 ovarian
SN12C renal = system: SN12C renal
SK-OV-3 ovarian = system: SK-OV-3 ovarian
LOX IMVI melanoma = system: LOX IMVI melanoma
OVCAR-5 ovarian = system: OVCAR-5 ovarian
IGROV1 ovarian = system: IGROV1 ovarian
TK-10 renal = system: TK-10 renal
MCF7 breast = system: MCF7 breast
HS 578T breast = system: HS 578T breast
SK-MEL-28 melanoma = system: SK-MEL-28 melanoma
SF-539 CNS = system: SF-539 CNS
HL-60(TB) leukemia = system: HL-60(TB) leukemia
RXF 393 renal = system: RXF 393 renal
KM12 colon = system: KM12 colon
NCI-H226 lung = system: NCI-H226 lung
MOLT-4 leukemia = system: MOLT-4 leukemia
HCT-116 colon = system: HCT-116 colon
NCI-H460 lung = system: NCI-H460 lung
DU-145 prostate = system: DU-145 prostate
M14 melanoma = system: M14 melanoma
A498 renal = system: A498 renal
SNB-75 CNS = system: SNB-75 CNS
SR leukemia = system: SR leukemia
MDA-MB-231 breast = system: MDA-MB-231 breast
SK-MEL-2 melanoma = system: SK-MEL-2 melanoma
PC-3 prostate = system: PC-3 prostate
COLO 205 colon = system: COLO 205 colon
HOP-92 NSCLC = system: HOP-92 NSCLC
T-47D breast = system: T-47D breast
A549 NSCLC = system: A549 NSCLC
OVCAR-4 ovarian = system: OVCAR-4 ovarian

SMILES: FC(F)(F)c1cc2c(Cl)ncnc2n1CCC1CCOCC1
- GI50 (SK-MEL-5 melanoma): 2.79 µM
- TGI (SK-MEL-5 melanoma): 9.23 µM
- GI50 (K-562 leukemia): 2.84 µM
- TGI (K-562 leukemia): 8.66 µM
- GI50 (UACC-62 melanoma): 4.23 µM
- TGI (UACC-62 melanoma): 15.7 µM
- GI50 (SF-268 CNS): 2.45 µM
- TGI (SF-268 CNS): 7.28 µM
- GI50 (MDA-MB-435): 5.01 µM
- TGI (MDA-MB-435): 18.3 µM
- GI50 (OVCAR-3 ovarian): 12.2 µM
- TGI (OVCAR-3 ovarian): 27.4 µM
- GI50 (NCI-H522 lung): 1.68 µM
- TGI (NCI-H522 lung): 3.68 µM
- GI50 (EKVX NSCLC): 12.6 µM
- TGI (EKVX NSCLC): 28.5 µM
- GI50 (786-0 renal): 16.1 µM
- TGI (786-0 renal): 32.4 µM
- GI50 (HCT-15 colon): 2.93 µM
- TGI (HCT-15 colon): 11 µM
- GI50 (U251 CNS): 2.07 µM
- TGI (U251 CNS): 5.58 µM
- GI50 (CCRF-CEM leukemia): 1.41 µM
- TGI (CCRF-CEM leukemia): 4.56 µM
- GI50 (SNB-19 CNS): 5.21 µM
- TGI (SNB-19 CNS): 18.1 µM
- GI50 (BT-549 breast): 10.2 µM
- TGI (BT-549 breast): 22.6 µM
- GI50 (ACHN renal): 11.1 µM
- TGI (ACHN renal): 26 µM
- GI50 (CAKI-1 renal): 14.6 µM
- TGI (CAKI-1 renal): 30.2 µM
- GI50 (UACC-257 melanoma): 3.56 µM
- TGI (UACC-257 melanoma): 15.7 µM
- GI50 (NCI-H23 lung): 2.59 µM
- TGI (NCI-H23 lung): 10 µM
- GI50 (NCI/ADR-RES ovarian): 17 µM
- TGI (NCI/ADR-RES ovarian): 35.1 µM
- GI50 (HT29 colon): 13.9 µM
- TGI (HT29 colon): 44.2 µM
- GI50 (UO-31 renal): 1.79 µM
- TGI (UO-31 renal): 3.79 µM
- GI50 (MALME-3M melanoma): 15.2 µM
- TGI (MALME-3M melanoma): 29.2 µM
- GI50 (SF-295 CNS): 14 µM
- TGI (SF-295 CNS): 27.9 µM
- GI50 (HCC-2998 colon): 1.63 µM
- TGI (HCC-2998 colon): 3.03 µM
- GI50 (HOP-62 NSCLC): 17 µM
- TGI (HOP-62 NSCLC): 35.1 µM
- GI50 (MDA-MB-468 breast): 1.66 µM
- TGI (MDA-MB-468 breast): 3.44 µM
- GI50 (RPMI-8226 leukemia): 14.6 µM
- TGI (RPMI-8226 leukemia): 41.4 µM
- GI50 (SW-620 colon): 11.9 µM
- TGI (SW-620 colon): 28.5 µM
- GI50 (OVCAR-8 ovarian): 2.44 µM
- TGI (OVCAR-8 ovarian): 7.33 µM
- GI50 (SN12C renal): 6.67 µM
- TGI (SN12C renal): 19.8 µM
- GI50 (SK-OV-3 ovarian): 17.3 µM
- TGI (SK-OV-3 ovarian): 33.3 µM
- GI50 (LOX IMVI melanoma): 1.63 µM
- TGI (LOX IMVI melanoma): 2.99 µM
- GI50 (OVCAR-5 ovarian): 24.1 µM
- TGI (OVCAR-5 ovarian): 81.9 µM
- GI50 (IGROV1 ovarian): 1.78 µM
- TGI (IGROV1 ovarian): 3.49 µM
- GI50 (TK-10 renal): 17.4 µM
- TGI (TK-10 renal): 36.7 µM
- GI50 (MCF7 breast): 11.5 µM
- TGI (MCF7 breast): 36.4 µM
- GI50 (HS 578T breast): 12.1 µM
- TGI (HS 578T breast): 45.5 µM
- GI50 (SK-MEL-28 melanoma): 2.6 µM
- TGI (SK-MEL-28 melanoma): 6 µM
- GI50 (SF-539 CNS): 13.6 µM
- TGI (SF-539 CNS): 27.7 µM
- GI50 (HL-60(TB) leukemia): 2.21 µM
- TGI (HL-60(TB) leukemia): 5.07 µM
- GI50 (RXF 393 renal): 8.75 µM
- TGI (RXF 393 renal): 22.1 µM
- GI50 (KM12 colon): 16.3 µM
- TGI (KM12 colon): 33.9 µM
- GI50 (NCI-H226 lung): 13.9 µM
- TGI (NCI-H226 lung): 28.5 µM
- GI50 (MOLT-4 leukemia): 2.35 µM
- TGI (MOLT-4 leukemia): 5.45 µM
- GI50 (HCT-116 colon): 2.36 µM
- TGI (HCT-116 colon): 6.48 µM
- GI50 (NCI-H460 lung): 2.42 µM
- TGI (NCI-H460 lung): 5.66 µM
- GI50 (DU-145 prostate): 4.35 µM
- TGI (DU-145 prostate): 15.1 µM
- GI50 (M14 melanoma): 3.76 µM
- TGI (M14 melanoma): 16.2 µM
- GI50 (A498 renal): 16.2 µM
- TGI (A498 renal): 29.9 µM
- GI50 (SNB-75 CNS): 3.09 µM
- TGI (SNB-75 CNS): 15.1 µM
- GI50 (SR leukemia): 2.05 µM
- TGI (SR leukemia): 5.32 µM
- GI50 (MDA-MB-231 breast): 3.9 µM
- TGI (MDA-MB-231 breast): 14 µM
- GI50 (SK-MEL-2 melanoma): 13.2 µM
- TGI (SK-MEL-2 melanoma): 28.2 µM
- GI50 (PC-3 prostate): 2.97 µM
- TGI (PC-3 prostate): 11.3 µM
- GI50 (COLO 205 colon): 16.4 µM
- TGI (COLO 205 colon): 37.2 µM
- GI50 (HOP-92 NSCLC): 13.9 µM
- TGI (HOP-92 NSCLC): 32.3 µM
- GI50 (T-47D breast): 20.2 µM
- TGI (T-47D breast): 59.6 µM
- GI50 (A549 NSCLC): 22 µM
- TGI (A549 NSCLC): 56.9 µM
- GI50 (OVCAR-4 ovarian): 18.5 µM
- TGI (OVCAR-4 ovarian): 50.1 µM
